The nature of data set [1]: Compound dose that was proved to be lethally toxic to mice (q24h). Type of data set: ADME. To be noted: mouse, in vivo.
In data set [2] the test system is Mus musculus. Kind of data set: Compound dose (dosing schedule - q8h) that prevented a decrease in RT activity and p24 antigen production without increase in cell viability in mice.* dose was found to be toxic. The format is functional.
In data set [3] the test system is Mus musculus. Kind of data set: Compound dose required to produce significant anti-HIV activity in mice after oral administration, given twice daily (q12h). Type of data set: functional.
Data set [4] concerns Mus musculus. Kind of data set: Compound dose required to produce significant anti-HIV activity in mice after i.p. administration, given twice daily (q12h). Type of data set: functional.
Data set [5] concerns Mus musculus. Kind of data set: Compound dose (dosing schedule - q8h) that produced a decrease in RT activity without protection against decreased cell viability in mice. The format is functional.
Data set [6] can be described thus: Compound dose that was proved to be lethally toxic to mice (q12h). To be noted: mouse, in vivo. The format is ADME.

From ChEMBL document CHEMBL1132010, “In vivo anti-HIV activity of (+)-calanolide A in the hollow fiber mouse model” (Bioorg Med Chem Lett, 1999) come the findings set out here.

For `CCCc1cc(=O)oc2c3c(c4c(c12)OC(C)(C)C=C4)O[C@H](C)[C@@H](C)[C@@H]3O` [CALANOLIDE A], the figures for the Toxic in data set [1] and in data set [6] were 300 mg/kg and 200 mg/kg, respectively. Besides, the Dose in data set [2] was determined as 150 mg/kg; in data set [3] it was 150 mg/kg; in data set [4] it was 200 mg/kg; in data set [5] it was 100 mg/kg.
